Experimental data: patent US12558386B2, “Methods and compositions to modulate antibiotic resistance and gastrointestinal microbiota” (OHIO STATE INNOVATION FOUNDATION, priority 2018, dated 2026)

Tests used:
poultry gut microbiota = test: Impact of ampicillin administration routes on poultry gut microbiota (FIG. 7); assay type: in vivo, chickens; conditions: Day 25
Text: (A) NI-Saline-PO; (B) NI-Amp-IM; (C) NI-Amp-PO; (D) Amp-IM; (E) Amp-PO.
The impact of ampicillin administration routes and inoculation of Amp^r E. coli on poultry gut microbiota. FIG. 7A-B illustrates the impact of ampicillin application on gut microbiota of chickens. The data illustrated that without antibiotic application (FIG. 7A), Lactobacillus dominant, E. coli/Shegilla insignificant. […] The results clearly illustrated the major impact on oral ampicillin administration on poultry gut microbiota by diminishing Lactobacillus, increasing Clostridium, and massively increase […] due to Amp^r E. coli in inoculated chickens and Klebsiella in non-inoculated chickens.

CG-12 = test: Screening of antibiotic susceptible commensal strains on antibiotic agar plates; assay type: cell-based, Lactobacillus crispatus; conditions: 16 μg/mL tetracycline, 100 μg/mL erythromycin, 32 μg/mL ampicillin, 152 μg/mL sulfamethoxazole with 8 μg/mL trimethoprim
Description: Multiple commensal bacterial strains from chicken feces were recovered from Columbia blood Agar base (Becton, […] Dickinson and Company, Franklin Lakes, NJ) supplemented with 5% defibrinated sheep blood (Thermo Scientific™, Grand Island, NY), and maintained in Columbia broth (Becton Dickinson and Company, Franklin Lakes, NJ) and propagated by anaerobic growth at 37° C. The strains were subjected to antibiotic susceptibility assessment followed by strain identification.
Screening of antibiotic susceptible commensal strains. Recovered commensal strain isolates (over 1000 colonies) were spotted on Columbia broth (Becton, […] Dickinson and Company, Franklin Lakes, NJ) agar plates containing each of the four antibiotics for rapid assessment of phenotypic resistance profiles. Screened antibiotics included 16 μg/mL tetracycline (Sigma-Aldrich, St. Louis, MO, USA), 100 μg/mL erythromycin (Fisher Scientific, Waltham, MA, USA), 32 μg/mL ampicillin (Sigma-Aldrich), and 152 μg/mL sulfamethoxazole (Sigma-Aldrich) with 8 μg/mL trimethoprim (Sigma-Aldrich).

E. coli CA-4 = test: MIC assessment (TREK Sensititre); assay type: cell-based, Escherichia coli; conditions: Escherichia coli, CA4; E. coli CA-4; read-out: MIC
Description: (§1) Bacterial strains. Multiple Amp^r strains from feces of broiler chickens without antibiotic treatment were recovered on Columbia blood Agar base (Becton, […] Dickinson and Company, Franklin Lakes, NJ) supplemented with 5% defibrinated sheep blood (Thermo Scientific™, Grand Island, NY). The strains were maintained in Columbia broth (Becton Dickinson and Company, Franklin Lakes, NJ), and propagated by aerobic growth at 37° C., and further subjected to strain identification and Minimum Inhibition Concentration (MIC) assessments.
(§2) Minimum inhibition concertation (MIC) assessment. A TREK Sensititre diagnostic system (Thermo scientific, Oakwood Village, OH, USA) was used to assess the AR phenotype and MIC of isolated strains. Protocols to use this system can be found on www.trekds.com. Cation-adjusted Mueller Hinton Broth (Becton, Dickinson and Company, MD, USA) was used as basic medium.

E. coli CA-20 = test: MIC assessment (TREK Sensititre); assay type: cell-based, Escherichia coli; conditions: Escherichia coli, CA20; E. coli CA-20; read-out: MIC
Description: as §1, §2

E. coli CA-1 = test: MIC assessment (TREK Sensititre); assay type: cell-based, Escherichia coli; conditions: Escherichia coli, CA1; E. coli CA-1; read-out: MIC
Text: Bacterial strains. Multiple Amp^r strains from feces of broiler chickens without antibiotic treatment were recovered on Columbia blood Agar base (Becton, […] Dickinson and Company, Franklin Lakes, NJ) supplemented with 5% defibrinated sheep blood (Thermo Scientific™, Grand Island, NY).
as §2

fecal microbiota = test: Chicken study, probiotics and ESBL E. coli followed by oral or injected Amp (FIG. 6); assay type: in vivo, chickens; conditions: Group 7 and Group 5, with or without ESBL E. coli inoculation
Text: FIGS. 6A and 6B show probiotics and ESBL inoculation on the profiles of poultry fecal microbiota followed by oral or injective antibiotic treatment. FIG. 6A) Phylum level; FIG. 6B) Class level. Group 1: probiotic cocktail treatment throughout, E coli exposure from Day 5 for 4 days and then oral Amp; Group 2: probiotic/peanut butter treatment throughout followed by E coli exposure and then oral Amp; Group 3: inoculated (E coli) then exposed to oral Amp, Group 4: noninoculated then exposed to oral Amp, Group 5: noninoculated then exposed to injective Amp, Group 6: noninoculated then exposed to saline; Group 7: inoculated (E coli) then exposed to injective Amp.
It was recognized that even if antibiotic resistant bacteria may be reduced by probiotic treatment, some of those resistant bacteria seeds might still retain in the microbiota, and could pop up again when exposed to antibiotics. Therefore in another set of the experiment, following probiotic and ESBL E. coli exposure, the chickens were further treated with Amp by oral or muscle injection. […] But Probiotic treated chickens (Group 1 &2) retained more Firmicutes or Cynobacteria than chickens without probiotic treatment (Group 3 with inoculated ESBL E. coli & Group 4 natural flora, with one outlier). […]

## CC1(C)S[C@@H]2[C@H](NC(=O)[C@H](N)c3ccccc3)C(=O)N2[C@H]1C(=O)O [AMP, ampicillin]
Poultry gut microbiota; muscle injection, inoculated with E. coli cocktail (FIG. 7D)
  change of gut microbiota: Firmicutes still dominant but with which Lactobacillus drastically reduced
Poultry gut microbiota; muscle injection, without inoculation of E. coli cocktail (FIG. 7B)
  change of gut microbiota: minimal changes
Poultry gut microbiota; oral feeding, inoculated with E. coli cocktail (FIG. 7E)
  change of gut microbiota: Firmicutes changed from dominant to minority
Poultry gut microbiota; oral, without inoculation of E. coli cocktail (FIG. 7C)
  change of gut microbiota: decrease of Firmicutes (still dominant) and significant increase of Proteobacteria
CG-12
  phenotypic susceptibility on antibiotic agar plates: susceptible
E. coli CA-4
  MIC: > 16 µg/mL
E. coli CA-20
  MIC: > 16 µg/mL
E. coli CA-1
  MIC: > 16 µg/mL
Fecal microbiota
  retention of Firmicutes, injection versus oral: significant difference in retaining Firmicutes
